Measurements published in patent publication US10183079B2, “Hydrogel microspheres containing peptide ligands for growth factor regulation in blood products” (Wisconsin Alumni Research Foundation, priority 2016, dated 2019).
Square brackets hold non-standard residues; d marks the D form. Primed or numbered codes have the meaning given here. Ends that are not written are not given here. PEG27′ = polyethylene glycol 27 spacer; βAla = NCCC(=O)O

How the values were obtained:
[1] = tested on: choroidal neovascularization; assay: Mouse choroidal neovascularization model; type: in vivo; settings: 2 μL/eye
Description: Microspheres (generated via sonication) were sanitized either by washing in 70% ethanol or by exposing to UV for 30 minutes prior to injection. Microspheres (F-VBP, F-Scramble, N-VBP, and N-Scramble) were suspended at 2 mg/mL in sterile PBS on the day of experiments. Soluble VBP or Scramble peptide (purchased from GenScript) were dissolved, sterile filtered through 0.2 μm filter, and diluted to 20 μg/mL in sterile PBS before experiments. SU4312 (Sigma) was dissolved in DMSO at 5 μg/mL, and Eylea (Regeneron Pharmaceuticals) was dissolved in PBS at 40 μg/mL and sterile filtered through 0.2 μm filter.
The mouse choroidal neovascularization model was generated as described in FIG. 8A. Briefly, C57BL/6J mice (Jackson Laboratories; 6-weeks old female) eyes were dilated using a drop of tropicamide (1%), and mice were anesthetized with ketamine and xylazine. Mice were subjected to photocoagulation (75 μm spot size, 0.1 s duration, 120 mW) at the 3-, 9-, and 12-o'clock positions of the posterior pole of the eye using an OcuLight GL diode laser (Iridex) with a glass coverslip over the eye. Microspheres were injected into each eye (2 μL/eye) using a pump microinjection apparatus (Harvard Apparatus) or Hamilton syringe. […] The area of ICAM-2+ staining (defined as mean CNV area) at each position (3-, 9-, and 12-o'clock) was quantified using Fiji and automated image thresholding. […]

iPSC-EC = iPSC-EC proliferation, xCELLigence cell index; type: cell-based; settings: 5 ng/mL VEGF, 48-hour culture; for iPSC-EC proliferation (cell index): soluble peptide
Description: Soluble branched VBP containing a PEG-27 spacer (C{βA}K({βA}{PEG-27}KSAPYEWNFDI{Ld}{Yd}{Ad}{Fd}E)2 (SEQ ID NO:10) was synthesized as described above using fmoc solid-phase peptide synthesis, wherein each amino acid after the branch point was added at 8 molar excess relative to the resin free amines with a corresponding 8 molar excess of DIPEA and 4 molar excess of HBTU during the coupling reaction. Peptide purity was assessed using reverse-phase high performance liquid chromatograph, and peptide identity was assessed using matrix-assisted laser desorption time-of-flight spectrometry. Peptide content was assessed using Ellman's assay for free thiol, and both soluble branched VBP2, PEG-27 and VBP2,a were dissolved in PBS for use in cell culture assay. The influence of soluble branched peptides on iPSC-EC proliferation was established using ACEA xCELLigence RTCA-DP. iPSC-EC used in this Example were cultured in iCell-EC Growth Medium (as described in Example 1 above), were passaged using TrypLE, and were used between passage 4-8 for experiments. E-plates (containing gold electrodes on the bottom of each well) were first coated with Fibronectin (Corning) and were seeded with iPSC-EC at a density of 6000 cells/cm^2. Seeded E-plates were cultured on RTCA-DP overnight in Growth Medium, and on the day of experiments, medium was removed and replaced with medium containing 0.1 vol % supplement (CDI) in VascuLife (LifeLine) and L-glutamine (LifeLine) and containing 5 ng/mL VEGF (LifeLine) and the specified concentrations of either VBP2, PEG-27 or VBP2,a. iPSC-EC proliferation was assessed by monitoring the cell index (indicating cell coverage over the gold-coated wells) over a 48-hour period in culture, and at the end of the 48-hour culture, cell indices were averaged for two replicate wells per condition. Statistical analysis at the end of the experiment was performed using two-way analysis of variance (ANOVA) and Tukey's post-hoc test for α=0.05.

For `Cc1cc(C)c(/C=C2\C(=O)Nc3ccccc32)[nH]1` [SU5416], the “mean CNV area, small-molecule inhibitor” value ([1]; 5 μg/mL in DMSO, vehicle control) was “inhibit angiogenesis in this model”.

“Eylea: commercial anti-angiogenesis compound (Regeneron Pharmaceuticals), soluble VEGF inhibitor protein” was tested, and the “mean CNV area, Eylea” value ([1]; 40 μg/mL, control IgG) was “inhibit angiogenesis in this model”.

“(E{Fd}{Ad}{Yd}{Ld}IDFNWEYPASK)2KC (E[dF][dA][dY][dL]IDFNWEYPASKE[dF][dA][dY][dL]IDFNWEYPASKKC-NH2; also: branched dimer: two arms on K33) [VBP2,a]” was tested, and the “iPSC-EC proliferation (cell index) at 5 μM” value (iPSC-EC; 5 μM soluble peptide) was “inhibited proliferation at a much greater extent than the VBP2, PEG27” and the “iPSC-EC proliferation (cell index)” value (iPSC-EC) was “inhibited iPSC-EC proliferation in culture with VEGF”.

For “C{βA}K({βA}{PEG-27}KSAPYEWNFDI{Ld}{Yd}{Ad}{Fd}E)2 (C[βAla]K[βAla][PEG27′]KSAPYEWNFDI[dL][dY][dA][dF]E[βAla][PEG27′]KSAPYEWNFDI[dL][dY][dA][dF]E; not fully specified (C-terminus); numbers in words are those of the source; also: branched dimer: two arms on K3) [VBP2, PEG27]”, the “iPSC-EC proliferation (cell index)” value (iPSC-EC) was “inhibited iPSC-EC proliferation in culture with VEGF”.
